The values that follow come from patent US10174002B2, “Pyridine derivatives as CFTR modulators” (NuBridge BioSciences, priority 2015, dated 2019).

Molecules are shown by their SMILES. Where a name gives a salt, the structure may show the parent alone.

T1 sequence (P13569 with tags, fused parts or gaps DEL508-508): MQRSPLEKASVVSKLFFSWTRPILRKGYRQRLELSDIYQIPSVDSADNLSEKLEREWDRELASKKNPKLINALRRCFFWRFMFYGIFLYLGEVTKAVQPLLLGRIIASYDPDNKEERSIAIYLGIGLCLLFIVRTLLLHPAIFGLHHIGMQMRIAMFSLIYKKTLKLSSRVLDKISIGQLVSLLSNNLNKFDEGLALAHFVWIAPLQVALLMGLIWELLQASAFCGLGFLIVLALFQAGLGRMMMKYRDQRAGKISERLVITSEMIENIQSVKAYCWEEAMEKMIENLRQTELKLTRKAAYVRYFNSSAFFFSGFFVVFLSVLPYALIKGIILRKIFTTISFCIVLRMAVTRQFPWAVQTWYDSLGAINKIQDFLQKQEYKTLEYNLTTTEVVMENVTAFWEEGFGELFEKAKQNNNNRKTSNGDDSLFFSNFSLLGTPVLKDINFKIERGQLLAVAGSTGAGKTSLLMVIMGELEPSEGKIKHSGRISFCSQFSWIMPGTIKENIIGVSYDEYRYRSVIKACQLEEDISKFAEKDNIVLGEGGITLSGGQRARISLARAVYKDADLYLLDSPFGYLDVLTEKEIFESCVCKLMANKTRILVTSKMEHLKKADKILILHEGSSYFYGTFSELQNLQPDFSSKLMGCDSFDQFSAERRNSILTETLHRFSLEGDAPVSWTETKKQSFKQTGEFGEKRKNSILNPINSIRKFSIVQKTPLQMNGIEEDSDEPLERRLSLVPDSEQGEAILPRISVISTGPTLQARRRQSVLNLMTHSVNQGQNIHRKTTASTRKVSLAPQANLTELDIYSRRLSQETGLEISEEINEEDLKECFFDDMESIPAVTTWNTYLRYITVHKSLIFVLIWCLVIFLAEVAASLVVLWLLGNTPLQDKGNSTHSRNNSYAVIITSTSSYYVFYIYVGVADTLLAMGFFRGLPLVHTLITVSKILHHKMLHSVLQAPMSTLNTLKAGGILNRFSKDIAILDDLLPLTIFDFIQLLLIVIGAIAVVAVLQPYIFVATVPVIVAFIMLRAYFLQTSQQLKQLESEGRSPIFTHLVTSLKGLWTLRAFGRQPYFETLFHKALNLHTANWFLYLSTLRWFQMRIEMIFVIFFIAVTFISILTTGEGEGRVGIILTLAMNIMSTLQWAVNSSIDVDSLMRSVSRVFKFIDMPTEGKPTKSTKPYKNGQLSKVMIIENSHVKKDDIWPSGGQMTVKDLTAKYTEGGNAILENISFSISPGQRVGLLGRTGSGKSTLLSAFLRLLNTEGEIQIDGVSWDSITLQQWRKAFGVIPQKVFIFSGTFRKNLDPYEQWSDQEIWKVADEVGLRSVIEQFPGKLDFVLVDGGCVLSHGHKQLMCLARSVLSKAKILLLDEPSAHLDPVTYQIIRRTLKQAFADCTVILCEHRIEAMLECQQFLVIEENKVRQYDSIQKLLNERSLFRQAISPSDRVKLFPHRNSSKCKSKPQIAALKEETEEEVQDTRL

The assay has as its target T1, ΔF508 mutant CFTR (Homo sapiens, UniProt P13569, DEL508-508).
T1 construct: expressed in transfected cells; host or cells: Fischer rat thyroid (FRT) cells, co-expressing the halide-sensitive YFP-H148Q/I152L
In words: Fluorescence Assay of ΔF508 mutant CFTR activity (halide-sensitive YFP quenching by iodide influx in FRT cells). The assay is classed as cell-based. More on the design: key: fold of mean activity with forskolin alone (I− quenching rate). Particulars: test compounds 20 μM with forskolin 20 μM, 20 min; FRT cells expressing ΔF508-CFTR and YFP-H148Q/I152L, incubated at 27° C. 20-24 h; rate of fluorescence quenching by I−, normalized to mean activity with forskolin alone. From the text:
The ΔF508 mutant CFTR activities of the CFTR modulators are detected using the Fluorescence Assay developed by Pedemonte (Pedemonte N., et al., Antihypertensive 1,4-dihydropyridines as correctors of the cystic fibrosis transmembrane conductance regulator channel gating defect caused by cystic fibrosis mutations, Mol. Pharmacol., 2005, 68, 1736-1746).
Fischer rat thyroid (FRT) cells, stably transfected with ΔF508 were retransfected with the YFP-H148Q/I152L fluorescent protein. The cells were plated (100,000 cells/well) on black 96-well microplates with clear plastic bottom (Corning Life Sciences, Acton, Mass.).
The 96-well microplates containing FRT cells expressing F508-CFTR and the halide-sensitive YFP were incubated at 27° C. for 20 to 24 h to allow rescue of the mutant protein to the plasma membrane. After incubation, cells were washed with PBS (containing 137 mM NaCl, 2.7 mM KCl, 8.1 mM Na2HPO4, 1.5 mM KH2PO4, 1 mM CaCl2, and 0.5 mM MgCl2) and stimulated for 20 min with forskolin (20 μM) and test compounds (20 μM) in a final volume of 60 μl. Microplates were then transferred to a microplate reader for CFTR activity determination. Each assay consisted of a continuous 14-s fluorescence reading (5 points per second) with 2 s before and 12 s after injection of 165 μl of an iodide-containing solution (PBS with Cl^− replaced by I^−). Final iodide concentration in the wells was 100 mM. […] To determine I^− influx rate, the final 11 s of the data for each well were fitted with an exponential function to extrapolate initial slope. CFTR activity was determined by measuring the rate of fluorescence quenching induced by extracellular addition of I^−. Data are normalized to the mean activity measured in the presence of forskolin alone.
`CNCCCOc1ccncc1NC(=O)c1ccc(F)c(-c2c(F)cccc2F)n1.Cl` [Example 13, 6-(2,6-difluorophenyl)-5-fluoro-N-(4-(3-(methylamino)propoxy)pyridin-3-yl)picolinamide hydrochloride]: the “CFTR Activity” value is reported as 0.6.

On to `Cl.O=C(Nc1cnccc1OC1CCCNC1)c1ccc(F)c(-c2c(F)cccc2F)n1` (centres unmarked) [Example 5, 6-(2,6-difluorophenyl)-5-fluoro-N-(4-(piperidin-3-yloxy)pyridin-3-yl)picolinamide hydrochloride], for which the “CFTR Activity” value amounted to 0.5.

Consider `COc1cccc(F)c1-c1nc(C(=O)Nc2cnccc2OC2CCCNCC2)ccc1F.Cl` (centres unmarked) [Example 41, N-(4-(azepan-4-yloxy)pyridin-3-yl)-5-fluoro-6-(2-fluoro-6-methoxyphenyl)picolinamide hydrochloride], for which the “CFTR Activity” value turned out to be 2.0.

On to `O=C(Nc1cnccc1OCCCO)c1ccc(F)c(-c2c(F)cccc2F)n1` [Example 17, 6-(2,6-difluorophenyl)-5-fluoro-N-(4-(3-hydroxypropoxy)pyridin-3-yl)picolinamide], for which the “CFTR Activity” value turned out to be 0.2.

Take `Cl.NCC(CCl)Oc1ccncc1NC(=O)c1nc(-c2c(F)cccc2F)c(F)cc1N` (centres unmarked) [Example 33, 3-amino-N-(4-((1-amino-3-chloropropan-2-yl)oxy)pyridin-3-yl)-6-(2,6-difluorophenyl)-5-fluoropicolinamide hydrochloride]: the “CFTR Activity” value turned out to be 2.1.

Turning to `Cl.Nc1cc(F)c(-c2c(F)cccc2F)nc1C(=O)Nc1cnccc1OC1CCCNCC1` (centres unmarked) [Example 26, 3-amino-N-(4-(azepan-4-yloxy)pyridin-3-yl)-6-(2,6-difluorophenyl)-5-fluoropicolinamide hydrochloride], the “CFTR Activity” value was determined as 4.3.

Take `Cl.NCC(CCl)COc1ccncc1NC(=O)c1nc(-c2c(F)cccc2F)c(F)cc1N` (centres unmarked) [Example 34, 3-amino-N-(4-(3-amino-2-(chloromethyl)propoxy)pyridin-3-yl)-6-(2,6-difluorophenyl)-5-fluoropicolinamide hydrochloride]: the “CFTR Activity” value amounted to 2.3.

Regarding `Cl.NC1CCCC(Oc2ccncc2NC(=O)c2ccc(C(F)(F)F)c(-c3c(F)cccc3F)n2)C1` (centres unmarked) [Example 60, N-(4-((3-aminocyclohexyl)oxy)pyridin-3-yl)-6-(2,6-difluorophenyl)-5-(trifluoromethyl)picolinamide hydrochloride], the “CFTR Activity” value is given as 5.7.

As to `Cl.Nc1cc(F)c(-c2c(F)cccc2F)nc1C(=O)Nc1cnccc1OC1CNC1` [Example 31, 3-amino-N-(4-(azetidin-3-yloxy)pyridin-3-yl)-6-(2,6-difluorophenyl)-5-fluoropicolinamide hydrochloride], the “CFTR Activity” value worked out at 1.1.

Take `Cl.NCC(CCl)COc1ccncc1NC(=O)c1ccc(C(F)(F)F)c(-c2c(F)cccc2F)n1` (centres unmarked) [Example 54, N-(4-(3-amino-2-(chloromethyl)propoxy)pyridin-3-yl)-6-(2,6-difluorophenyl)-5-(trifluoromethyl)picolinamide hydrochloride]: the “CFTR Activity” value is listed as 1.8.

Regarding `O=C(Nc1cnccc1OCC1CCOCC1)c1ccc(C(F)(F)F)c(-c2c(F)cccc2F)n1` [Example 47, 6-(2,6-difluorophenyl)-N-(4-((tetrahydro-2H-pyran-4-yl)methoxy)pyridin-3-yl)-5-(trifluoromethyl)picolinamide], the “CFTR Activity” value worked out at 0.4.

Regarding `Cl.O=C(Nc1cnccc1OCC1CNC1)c1ccc(C(F)(F)F)c(-c2c(F)cccc2F)n1` [Example 44, N-(4-(azetidin-3-ylmethoxy)pyridin-3-yl)-6-(2,6-difluorophenyl)-5-(trifluoromethyl)picolinamide hydrochloride], the “CFTR Activity” value is on record as 2.1.

In the case of `Cl.O=C(Nc1cnccc1OC1CCCNCC1)c1ccc(C(F)(F)F)c(-c2c(F)cccc2F)n1` (centres unmarked) [Example 42, N-(4-(azepan-4-yloxy)pyridin-3-yl)-6-(2,6-difluorophenyl)-5-(trifluoromethyl)picolinamide hydrochloride], the “CFTR Activity” value is listed as 2.7.

In the case of `Cl.NCCCCOc1ccncc1NC(=O)c1ccc(F)c(-c2c(F)cccc2F)n1` [Example 15, N-(4-(4-aminobutoxy)pyridin-3-yl)-6-(2,6-difluorophenyl)-5-fluoropicolinamide hydrochloride], the “CFTR Activity” value came to 0.7.

With `Cl.O=C(Nc1cnccc1OC1CCNCC1)c1ccc(F)c(-c2ccncc2)n1` [Example 39, 3-fluoro-N-(4-(piperidin-4-yloxy)pyridin-3-yl)-[2,4′-bipyridine]-6-carboxamide hydrochloride], the “CFTR Activity” value turned out to be 1.0.

For the compound `Cl.Nc1cc(C(F)(F)F)c(-c2c(F)cccc2F)nc1C(=O)Nc1cnccc1OC1CCCNCC1` (centres unmarked) [Example 48, 3-amino-N-(4-(azepan-4-yloxy)pyridin-3-yl)-6-(2,6-difluorophenyl)-5-(trifluoromethyl)picolinamide hydrochloride], the “CFTR Activity” value was 5.2.

For the compound `Cl.O=C(Nc1cnccc1OCC1CCNC1)c1ccc(F)c(-c2c(F)cccc2F)n1` (centres unmarked) [Example 8, 6-(2,6-difluorophenyl)-5-fluoro-N-(4-(pyrrolidin-3-ylmethoxy)pyridin-3-yl)picolinamide hydrochloride], the “CFTR Activity” value is listed as 0.5.

Consider `NCC(CCl)Oc1ccncc1NC(=O)c1ccc(F)c(-c2c(F)cccc2F)n1` (centres unmarked) [Example 29, N-(4-((1-amino-3-chloropropan-2-yl)oxy)pyridin-5-yl)-6-(2,6-difluorophenyl)-5-fluoropicolinamide hydrochloride], for which the “CFTR Activity” value was found to be 1.8.

`Cl.O=C(Nc1cnccc1OC1CCCNCC1)c1ccc(F)c(-c2c(F)cccc2F)n1` (centres unmarked) [Example 6, N-(4-(azepan-4-yloxy)pyridin-3-yl)-6-(2,6-difluorophenyl)-5-fluoropicolinamide hydrochloride]: the “CFTR Activity” value is listed as 1.9.

As to `Cl.Nc1cc(F)c(-c2c(F)cccc2F)nc1C(=O)Nc1cnccc1O[C@H]1CC[C@H](N)CC1` [Example 27, 3-amino-N-(4-(((1r,4r)-4-aminocyclohexyl)oxy)pyridin-3-yl)-6-(2,6-difluorophenyl)-5-fluoropicolinamide hydrochloride], the “CFTR Activity” value is recorded as 4.5.

Turning to `O=C(Nc1cnccc1OCC1CCOCC1)c1ccc(F)c(-c2c(F)cccc2F)n1` [Example 22, 6-(2,6-difluorophenyl)-5-fluoro-N-(4-((tetrahydro-2H-pyran-4-yl)methoxy)pyridin-3-yl)picolinamide], the “CFTR Activity” value is reported as 0.05.

For `Cl.NCC(CCl)COc1ccncc1NC(=O)c1nc(-c2c(F)cccc2F)c(C(F)(F)F)cc1N` (centres unmarked) [Example 55, 3-amino-N-(4-(3-amino-2-(chloromethyl)propoxy)pyridin-3-yl)-6-(2,6-difluorophenyl)-5-(trifluoromethyl)picolinamide hydrochloride], the “CFTR Activity” value is given as 5.5.

As to `Cl.O=C(Nc1cnccc1OC1CCNCC1)c1ccc(F)c(-c2c(F)cccc2F)n1` [Example 3, 6-(2,6-difluorophenyl)-5-fluoro-N-(4-(piperidin-4-yloxy)pyridin-3-yl)picolinamide hydrochloride], the “CFTR Activity” value came out at 1.6.

On to `Cl.NC1CCC(Oc2ccncc2NC(=O)c2ccc(F)c(-c3c(F)cccc3F)n2)CC1` (centres unmarked) [Example 10, N-(4-(((1r,4r)-4-aminocyclohexyl)oxy)pyridin-3-yl)-6-(2,6-difluorophenyl)-5-fluoropicolinamide hydrochloride], for which the “CFTR Activity” value amounted to 2.2.

`Cl.Nc1cc(F)c(-c2c(F)cccc2F)nc1C(=O)Nc1cnccc1OCC1CCCNC1` (centres unmarked) [Example 35, 3-amino-6-(2,6-difluorophenyl)-5-fluoro-N-(4-(piperidin-3-ylmethoxy)pyridin-3-yl)picolinamide hydrochloride]: the “CFTR Activity” value came out at 2.1.

On to `Cl.NCC(CCl)COc1ccncc1NC(=O)c1ccc(F)c(-c2c(F)cccc2F)n1` (centres unmarked) [Example 30, N-(4-(3-amino-2-(chloromethyl)propoxy)pyridin-5-yl)-6-(2,6-difluorophenyl)-5-fluoropicolinamide hydrochloride], for which the “CFTR Activity” value was determined as 1.6.

As to `Cl.O=C(Nc1cnccc1OCC1CCCNC1)c1ccc(F)c(-c2c(F)cccc2F)n1` (centres unmarked) [Example 7, 6-(2,6-difluorophenyl)-5-fluoro-N-(4-(piperidin-3-ylmethoxy)pyridin-3-yl)picolinamide hydrochloride], the “CFTR Activity” value was found to be 0.8.

With `CC(O)CCOc1ccncc1NC(=O)c1ccc(F)c(-c2c(F)cccc2F)n1` (centres unmarked) [Example 18, 6-(2,6-difluorophenyl)-5-fluoro-N-(4-(3-hydroxybutoxy)pyridin-3-yl)picolinamide], the “CFTR Activity” value was 0.1.

As to `Cl.Nc1cc(F)c(-c2c(F)cccc2F)nc1C(=O)Nc1cnccc1OCC1CCNCC1` [Example 23, 3-amino-6-(2,6-difluorophenyl)-5-fluoro-N-(4-(piperidin-4-ylmethoxy)pyridin-3-yl)picolinamide hydrochloride], the “CFTR Activity” value is 2.5.
